From patent US9096608B2, “Pharmaceutically active pyrazolo-triazine derivatives” (LEAD DISCOVERY CENTER GMBH, priority 2012, dated 2015)

Experiments:
Type in all cases: biochemical
CDK2/CycA = biological target: T1, CDK2/CycA (Homo sapiens, UniProt P24941); test: CDK2 Enzymatic Activity Assay (Lance Kinase Activity Assay, FRET); details: Table 5B; symbols per IC50 ranges of b615
T1 construct: purchased Proqinase
Procedure, shortened: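 Compounds serially diluted 1:3 over 8 steps, run with CDK2/CycA, ULight-MBP substrate and ATP in HEPES pH 7.5 buffer for 1 h at room temperature. LANCE TR-FRET detection with Eu-anti-phospho-MBP after EDTA stop; IC50 from sigmoidal dose-response curves.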

CDK7/CycH/Mat1 = biological target: T2, CDK7/CycH/Mat1 (Homo sapiens, UniProt P50613); test: CDK7 Enzymatic Activity Assay (Lance Kinase Activity Assay, FRET); details: Table 5A; 25 μM ATP final; read-out: CDK7: IC50 [mM] for CDK7 inhibition (the above defined ranges apply)
T2 construct: purchased Carna
Procedure, shortened: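 TR-FRET (LANCE) kinase assay with ULight-MBP peptide substrate and Eu-labelled anti-phospho antibody; compounds in 8-point 1:3 series in HEPES 50 mM pH 7.5, MgCl2 10 mM, EGTA 1 mM, DTT 2 mM, 0.01% Tween-20.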

CDK9/Cyclin T1 = biological target: T3, CDK9/Cyclin T1 (Homo sapiens, UniProt P50750); test: CDK9 Enzymatic Activity Assay (Lance Kinase Activity Assay, FRET); details: Table 5B; symbols per IC50 ranges of b615
T3 construct: purchased Invitrogen
Procedure, shortened: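 TR-FRET detection of ULight-MBP substrate phosphorylation by CDK9/cyclin T1 using a Eu-anti-phospho-MBP antibody, in 50 mM HEPES pH 7.5, 10 mM MgCl2, 1 mM EGTA, 2 mM DTT, 0.01% Tween-20. Kinase reaction 1 h at room temperature, then EDTA detection buffer for 1 h before reading.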

T2 sequence (P50613 whole entry): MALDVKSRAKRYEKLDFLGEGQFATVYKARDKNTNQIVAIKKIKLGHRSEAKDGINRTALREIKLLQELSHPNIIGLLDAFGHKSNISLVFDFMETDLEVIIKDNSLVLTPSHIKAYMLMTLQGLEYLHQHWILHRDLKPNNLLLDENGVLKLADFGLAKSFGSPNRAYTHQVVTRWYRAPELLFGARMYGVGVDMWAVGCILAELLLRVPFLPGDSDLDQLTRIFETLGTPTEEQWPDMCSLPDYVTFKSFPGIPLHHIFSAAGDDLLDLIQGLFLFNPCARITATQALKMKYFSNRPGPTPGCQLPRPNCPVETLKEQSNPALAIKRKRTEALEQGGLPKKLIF
T2 sequence (P51946 whole entry partner): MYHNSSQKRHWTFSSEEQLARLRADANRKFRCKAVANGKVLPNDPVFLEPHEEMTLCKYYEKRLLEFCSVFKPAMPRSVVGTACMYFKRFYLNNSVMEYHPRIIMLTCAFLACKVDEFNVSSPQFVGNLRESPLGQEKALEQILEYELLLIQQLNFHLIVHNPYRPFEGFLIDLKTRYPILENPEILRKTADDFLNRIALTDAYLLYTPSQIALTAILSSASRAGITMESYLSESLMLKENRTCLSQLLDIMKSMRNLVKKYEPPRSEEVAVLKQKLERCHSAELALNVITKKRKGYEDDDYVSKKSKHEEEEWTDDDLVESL
T2 sequence (P51948 whole entry partner): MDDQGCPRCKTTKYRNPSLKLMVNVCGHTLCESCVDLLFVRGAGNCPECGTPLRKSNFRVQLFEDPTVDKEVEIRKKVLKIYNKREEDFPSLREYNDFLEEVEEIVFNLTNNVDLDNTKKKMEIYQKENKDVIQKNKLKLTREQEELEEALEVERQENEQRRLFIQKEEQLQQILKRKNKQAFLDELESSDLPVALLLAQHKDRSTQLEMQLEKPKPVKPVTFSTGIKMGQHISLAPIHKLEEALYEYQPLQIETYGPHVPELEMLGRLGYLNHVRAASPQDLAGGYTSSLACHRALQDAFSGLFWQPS
T3 sequence (P50750 whole entry): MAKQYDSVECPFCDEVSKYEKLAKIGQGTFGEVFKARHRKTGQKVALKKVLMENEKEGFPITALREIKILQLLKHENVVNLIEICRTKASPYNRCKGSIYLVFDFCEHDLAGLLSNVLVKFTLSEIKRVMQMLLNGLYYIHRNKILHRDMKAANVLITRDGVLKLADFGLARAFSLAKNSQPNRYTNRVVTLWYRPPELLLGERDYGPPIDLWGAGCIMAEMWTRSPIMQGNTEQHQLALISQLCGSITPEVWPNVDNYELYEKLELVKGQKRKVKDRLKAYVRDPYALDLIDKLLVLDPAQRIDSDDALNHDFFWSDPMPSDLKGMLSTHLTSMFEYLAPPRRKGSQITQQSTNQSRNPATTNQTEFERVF
T3 sequence (O60563 whole entry partner): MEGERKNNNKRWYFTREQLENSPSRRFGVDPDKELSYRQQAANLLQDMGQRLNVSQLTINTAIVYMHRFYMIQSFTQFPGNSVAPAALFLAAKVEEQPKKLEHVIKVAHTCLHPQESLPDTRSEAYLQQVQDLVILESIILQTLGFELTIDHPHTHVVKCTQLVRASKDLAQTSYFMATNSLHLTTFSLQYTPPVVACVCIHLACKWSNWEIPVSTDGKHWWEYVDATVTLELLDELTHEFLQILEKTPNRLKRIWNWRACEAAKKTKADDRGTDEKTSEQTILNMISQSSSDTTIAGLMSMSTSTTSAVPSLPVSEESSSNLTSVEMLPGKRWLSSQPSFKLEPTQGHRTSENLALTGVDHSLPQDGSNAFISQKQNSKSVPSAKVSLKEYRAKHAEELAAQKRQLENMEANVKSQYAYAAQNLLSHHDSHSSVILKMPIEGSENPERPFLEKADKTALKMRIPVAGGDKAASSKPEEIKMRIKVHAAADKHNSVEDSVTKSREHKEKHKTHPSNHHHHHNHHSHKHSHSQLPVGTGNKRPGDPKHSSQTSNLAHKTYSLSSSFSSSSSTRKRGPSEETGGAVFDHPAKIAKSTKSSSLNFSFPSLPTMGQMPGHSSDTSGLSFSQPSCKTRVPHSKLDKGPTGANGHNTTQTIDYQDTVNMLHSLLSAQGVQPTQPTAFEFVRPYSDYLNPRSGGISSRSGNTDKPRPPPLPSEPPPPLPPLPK

| SMILES | CDK2 IC50 range class (CDK2/CycA) | IC50 (CDK7/CycH/Mat1) [nM] | CDK9: Selectivity of CDK7 inhibition over CDK9 inhibition [fold] (CDK9/Cyclin T1) |
| --- | --- | --- | --- |
| COc1ccc(C(C)Nc2nc(O[C@@H]3CCCNC3)nc3c(C(C)C)cnn23)cc1 (stereo partly drawn) [(VII-an), 8-isopropyl-N-(1-(4-methoxyphenyl)ethyl)-2-((R)-piperidin-3-yloxy)pyrazolo[1,5-a][1,3,5]triazin-4-amine] | +++ (IC50>2500 nM) | > 100 | +++ (IC50>2500 nM) |
| COc1cc(OC)cc(C(C)Nc2nc(O[C@@H]3CCCNC3)nc3c(C(C)C)cnn23)c1 (stereo partly drawn) [(VII-bg), N-(1-(3,5-dimethoxy-phenyl)ethyl)-8-isopropyl-2-((R)-piperidin-3-yloxy)pyrazolo[1,5-a][1,3,5]triazin-4-amine] | +++ (IC50>2500 nM) | > 100 | +++ (IC50>2500 nM) |
| CC(C)c1cnn2c(N[C@@H](C)c3cccc4ccccc34)nc(O[C@@H]3CCCNC3)nc12 [(VII-am), 8-isopropyl-N-((S)-1-(naphthalen-1-yl)ethyl)-2-((R)-piperidin-3-yloxy)pyrazolo[1,5-a][1,3,5]triazin-4-amine] | +++ (IC50>2500 nM) | 10 to 30 | +++ (IC50>2500 nM) |
| Cc1ccccc1[C@H](C)Nc1nc(O[C@@H]2CCCNC2)nc2c(C(C)C)cnn12 [(VII-af), 8-isopropyl-2-((R)-piperidin-3-yloxy)-N-((S)-1-(o-tolyl)ethyl)pyrazolo[1,5-a][1,3,5]triazin-4-amine] | +++ (IC50>2500 nM) | 10 to 30 | +++ (IC50>2500 nM) |

Further lines, results first:

| CDK2 IC50 range class (CDK2/CycA) | IC50 (CDK7/CycH/Mat1) [nM] | CDK9: Selectivity of CDK7 inhibition over CDK9 inhibition [fold] (CDK9/Cyclin T1) | SMILES |
| --- | --- | --- | --- |
| +++ (IC50>2500 nM) | > 100 | +++ (IC50>2500 nM) | COc1cccc([C@H](C)Nc2nc(N3CC(N4CCC(F)(F)C4)C3)nc3c(C(C)C)cnn23)c1 [(VIII-o), (S)-2-(3-(3,3-difluoropyrrolidin-1-yl)azetidin-1-yl)-8-isopropyl-N-(1-(3-methoxyphenyl)ethyl)pyrazolo[1,5-a][1,3,5]triazin-4-amine] |
| +++ (IC50>2500 nM) | > 100 | +++ (IC50>2500 nM) | COc1cccc([C@H](C)Nc2nc(NCCN)nc3c(C(C)C)cnn23)c1 [(VIII-V), (S)-N2-(2-aminoethyl)-8-isopropyl-N4-(1-(3-methoxyphenyl)ethyl)pyrazolo[1,5-a][1,3,5]triazine-2,4-diamine] |
| +++ (IC50>2500 nM) | > 100 | +++ (IC50>2500 nM) | COc1cccc([C@H](C)Nc2nc(CN3CC(N4CCC(F)(F)C4)C3)nc3c(C(C)C)cnn23)c1 [(XXIX-9), (S)-2-((3-(3,3-difluoropyrrolidin-1-yl)azetidin-1-yl)methyl)-8-isopropyl-N-(1-(3-methoxyphenyl)ethyl)pyrazolo[1,5-a][1,3,5]triazin-4-amine] |
| +++ (IC50>2500 nM) | < 10 | +++ (IC50>2500 nM) | CC(C)c1cnn2c(N[C@@H](C)c3ccccc3)nc(OC3CCC(N)CC3)nc12 (stereo partly drawn) [(VII-k), (S)-2-((4-aminocyclohexyl)oxy)-8-isopropyl-N-(1-phenylethyl)pyrazolo[1,5-a][1,3,5]triazin-4-amine] |
